Reference: patent US10519145B2, “Pyrazole-oxazolidinone compound for anti-hepatitis B virus” (Shanghai Zhimeng Biopharma Co., Ltd., priority 2016, dated 2019)

Experiments:
[1] = test system: HBV (HepG2.2.15 cells); assay: Anti-HBV activity experiment in vitro (HepG2.2.15, HBV DNA in supernatant, qPCR); type: cell-based; conditions: Hepatitis B virus, HBV DNA in supernatant by qPCR, eighth day
Procedure: Compound Dilution: initial concentrations of all compounds used in the anti-HBV activity experiments in vitro were 1 μM, 3-fold diluted into 8 concentrations; initial concentrations of all compounds used in the cytotoxicity assay were 100 μM, 3-fold diluted into 8 concentrations; and the mother liquor of the compound was diluted with DMSO.
(§1) Anti-HBV Activity Experiment In Vitro: HepG2.2.15 cells (4×10^4 cells/well) were seeded in 96-well plates and cultured overnight at 37° C. in 5% CO2. The next day, fresh cultures containing compounds in different concentrations were added into the culture wells. On the fifth day, the old culture medium in the culture wells was aspirated and removed. Fresh medium containing compounds in different concentrations was added. On the eighth day, supernatants in the culture wells were collected and used to extract HBV DNA in the supernatant. qPCR assay was used to detect HBV DNA content in the HepG2.2.15 supernatant.
The data analysis and the percentage of inhibition calculation: the percentage of inhibition was calculated by using the following formula: Inhibition %=[(HBV amount in DMSO control−HBV amount in sample)/HBV amount in DMSO control]×100%.

[2] = Pharmacokinetic determination in rats (IV and PO); type: in vivo, Sprague Dawley rats; conditions: rat
Procedure: The pharmacokinetics of the compound of Example 3 (racemate) in the present application was determined in rats.
Test compounds were intravenously (IV) and orally (P0) administered to Sprague Dawley rats once. Blood samples were collected at different time points. LC/MS/MS was used to determine the concentration of the test compounds in the rat plasma after the administration of the test compounds and calculate the relating parameters.
Time points for animal blood collection were: before administration, 5 min, 15 min, 30 min, 1 h, 2 h, 4 h, 6 h, 8 h and 24 h after administration. Approximately 0.3 mL of blood via jugular or other appropriate venipuncture was collected from each animal and anticoagulated with heparin sodium. Blood samples were collected and placed on ice, and plasma was centrifuged (centrifugation: 8000 rpm, 6 min, 4° C.). Plasma samples were stored in a −70° C. freezer before analysis.
50 μL of sample was taken into a 1.5 mL centrifuge tube, and 250 μL of internal standard solution was added. After subjected to vortex for 60 seconds and centrifugation for 5 min (14,000 revolutions/min), 200 μL of supernatant was taken into a 96-well sample plate for analysis.
Mass spectrometer: API 4000, Applied Biosystems, Inc., Electrospray Ionization Source (ESI), Tandem quadrupole mass analyzer.
Mass spectrometry conditions: ion source: electrospray ionization source (ESI); auxiliary gas (Gas1): 60 psi; auxiliary gas (Gas2): 60 psi; curtain gas (CUR): 14 psi; collision gas (CAD): 6; ion source voltage (IS): 5500V; ion source temperature (TEM): 550° C.
Liquid phase conditions: chromatography Column: Thermo AQUASIL C18 (50×2.1 mm); chromatographic mobile phase: A is 0.1% formic acid in water, solution B is 0.1% formic acid in methanol (A:B=80%: 20%-10%: 90%); flow rate: 500 μL/min; injection volume: 1 μL.
According to the drug blood concentration data, the pharmacokinetic parameters of the test compound were calculated using the pharmacokinetic calculation software WinNonlin 5.2 non-compartmental model.

[3] = test system: HBV genotype HE974371 (A2); assay: Anti-different genotypic HBV strain activity assay in vitro, transient transfection; type: cell-based; conditions: Hepatitis B virus, HepG2
Procedure: as §1, with “Compounds were tested for in vitro activity against different genotypic HBV strains using a transient transfection cell model. HepG2 cells” for “Anti-HBV Activity Experiment In Vitro: HepG2.2.15 cells”, “cells/well) that had been transfected with different HBV genotypic strains” for “cells/well)”, “seeded into” for “seeded in”, “removed. The fresh” for “removed. Fresh”, “to detected” for “to detect”, “the HepG2” for “the HepG2.2.15”

[4] = test system: HBV genotype U95551 (D); assay: as above; type: cell-based; conditions: Hepatitis B virus, HepG2
Procedure: as §1, with “Compounds were tested for in vitro activity against different genotypic HBV strains using a transient transfection cell model. HepG2 cells” for “Anti-HBV Activity Experiment In Vitro: HepG2.2.15 cells”, “cells/well) that had been transfected with different HBV genotypic strains” for “cells/well)”, “seeded into” for “seeded in”, “removed. The fresh” for “removed. Fresh”, “to detected” for “to detect”, “the HepG2” for “the HepG2.2.15”

[5] = test system: HBV genotype AB246346 (C); assay: as above; type: cell-based; conditions: Hepatitis B virus, HepG2
Procedure: as §1, with “Compounds were tested for in vitro activity against different genotypic HBV strains using a transient transfection cell model. HepG2 cells” for “Anti-HBV Activity Experiment In Vitro: HepG2.2.15 cells”, “cells/well) that had been transfected with different HBV genotypic strains” for “cells/well)”, “seeded into” for “seeded in”, “removed. The fresh” for “removed. Fresh”, “to detected” for “to detect”, “the HepG2” for “the HepG2.2.15”

[6] = test system: HBV genotype AB246345 (C); assay: as above; type: cell-based; conditions: Hepatitis B virus, HepG2
Procedure: as §1, with “Compounds were tested for in vitro activity against different genotypic HBV strains using a transient transfection cell model. HepG2 cells” for “Anti-HBV Activity Experiment In Vitro: HepG2.2.15 cells”, “cells/well) that had been transfected with different HBV genotypic strains” for “cells/well)”, “seeded into” for “seeded in”, “removed. The fresh” for “removed. Fresh”, “to detected” for “to detect”, “the HepG2” for “the HepG2.2.15”

[7] = test system: HBV genotype JN406371 (B); assay: as above; type: cell-based; conditions: Hepatitis B virus, HepG2
Procedure: as §1, with “Compounds were tested for in vitro activity against different genotypic HBV strains using a transient transfection cell model. HepG2 cells” for “Anti-HBV Activity Experiment In Vitro: HepG2.2.15 cells”, “cells/well) that had been transfected with different HBV genotypic strains” for “cells/well)”, “seeded into” for “seeded in”, “removed. The fresh” for “removed. Fresh”, “to detected” for “to detect”, “the HepG2” for “the HepG2.2.15”

[8] = test system: HBV genotype AB033554 (B); assay: as above; type: cell-based; conditions: Hepatitis B virus, HepG2
Procedure: as §1, with “Compounds were tested for in vitro activity against different genotypic HBV strains using a transient transfection cell model. HepG2 cells” for “Anti-HBV Activity Experiment In Vitro: HepG2.2.15 cells”, “cells/well) that had been transfected with different HBV genotypic strains” for “cells/well)”, “seeded into” for “seeded in”, “removed. The fresh” for “removed. Fresh”, “to detected” for “to detect”, “the HepG2” for “the HepG2.2.15”

[9] = test system: HBV genotype AP007263 (A); assay: as above; type: cell-based; conditions: Hepatitis B virus, HepG2
Procedure: as §1, with “Compounds were tested for in vitro activity against different genotypic HBV strains using a transient transfection cell model. HepG2 cells” for “Anti-HBV Activity Experiment In Vitro: HepG2.2.15 cells”, “cells/well) that had been transfected with different HBV genotypic strains” for “cells/well)”, “seeded into” for “seeded in”, “removed. The fresh” for “removed. Fresh”, “to detected” for “to detect”, “the HepG2” for “the HepG2.2.15”

[10] = test system: HBV strain U95551 (WT); assay: In vitro anti-nucleoside drug-resistant HBV strain activity experiment, transient transfection; type: cell-based; conditions: Hepatitis B virus, transfected HepG2 cells
Procedure: as §1, with “Compounds were tested for in vitro activity against nucleoside drug-resistant HBV strains using a transient transfection cell model. HepG2 cells” for “Anti-HBV Activity Experiment In Vitro: HepG2.2.15 cells”, “cells/well) that had been transfected with nucleoside drug-resistant HBV strains” for “cells/well)”, “seeded into” for “seeded in”, “removed. The fresh” for “removed. Fresh”, “the HepG2” for “the HepG2.2.15”

[11] = test system: nucleoside drug-resistant HBV strain M204I + S202G; assay: as above; type: cell-based; conditions: Hepatitis B virus, HepG2, 192 h
Procedure: as §1, with “Compounds were tested for in vitro activity against nucleoside drug-resistant HBV strains using a transient transfection cell model. HepG2 cells” for “Anti-HBV Activity Experiment In Vitro: HepG2.2.15 cells”, “cells/well) that had been transfected with nucleoside drug-resistant HBV strains” for “cells/well)”, “seeded into” for “seeded in”, “removed. The fresh” for “removed. Fresh”, “the HepG2” for “the HepG2.2.15”

[12] = test system: nucleoside drug-resistant HBV strain M204I + V173L; assay: as above; type: cell-based; conditions: Hepatitis B virus, HepG2, 192 h
Procedure: as §1, with “Compounds were tested for in vitro activity against nucleoside drug-resistant HBV strains using a transient transfection cell model. HepG2 cells” for “Anti-HBV Activity Experiment In Vitro: HepG2.2.15 cells”, “cells/well) that had been transfected with nucleoside drug-resistant HBV strains” for “cells/well)”, “seeded into” for “seeded in”, “removed. The fresh” for “removed. Fresh”, “the HepG2” for “the HepG2.2.15”

[13] = test system: nucleoside drug-resistant HBV strain L180M + M204V; assay: as above; type: cell-based; conditions: Hepatitis B virus, HepG2, 192 h
Procedure: as §1, with “Compounds were tested for in vitro activity against nucleoside drug-resistant HBV strains using a transient transfection cell model. HepG2 cells” for “Anti-HBV Activity Experiment In Vitro: HepG2.2.15 cells”, “cells/well) that had been transfected with nucleoside drug-resistant HBV strains” for “cells/well)”, “seeded into” for “seeded in”, “removed. The fresh” for “removed. Fresh”, “the HepG2” for “the HepG2.2.15”

[14] = test system: nucleoside drug-resistant HBV strain M204I + S202G + M250V; assay: as above; type: cell-based; conditions: Hepatitis B virus, HepG2, 192 h
Procedure: as §1, with “Compounds were tested for in vitro activity against nucleoside drug-resistant HBV strains using a transient transfection cell model. HepG2 cells” for “Anti-HBV Activity Experiment In Vitro: HepG2.2.15 cells”, “cells/well) that had been transfected with nucleoside drug-resistant HBV strains” for “cells/well)”, “seeded into” for “seeded in”, “removed. The fresh” for “removed. Fresh”, “the HepG2” for “the HepG2.2.15”

[15] = test system: nucleoside drug-resistant HBV strain M204I; assay: as above; type: cell-based; conditions: Hepatitis B virus, HepG2
Procedure: as §1, with “Compounds were tested for in vitro activity against nucleoside drug-resistant HBV strains using a transient transfection cell model. HepG2 cells” for “Anti-HBV Activity Experiment In Vitro: HepG2.2.15 cells”, “cells/well) that had been transfected with nucleoside drug-resistant HBV strains” for “cells/well)”, “seeded into” for “seeded in”, “removed. The fresh” for “removed. Fresh”, “the HepG2” for “the HepG2.2.15”

[16] = Sprague Dawley, IV, single administration, plasma
[17] = Sprague Dawley, PO, single administration, plasma

SMILES: O=C1COC(c2cn(-c3ccc(Br)cc3)nc2-c2ccc(F)cc2)N1CCc1ccc2[nH]c(=O)[nH]c2c1 (racemic) [example 3 racemate, 3-(2-(2-oxo-2,3-dihydro-1H-benzo[d]imidazol-5-yl)ethyl)-2-(1-(4-bromophenyl)-3-(4-fluorophenyl)-1H-pyrazol-4-yl)-oxazolidin-4-one]
- EC50 [1]: 31.2 nM
- Vd ([2]; Sprague Dawley, plasma, IV, single administration, read-out: Vz): 6.22 L/kg
- AUC(0-inf) [2, 16]: 3880 ng·h/mL
- Cmax [2, 16]: 5460 ng/mL
- Tmax [2, 16]: 0.083 h
- half-life [2, 16]: 3.52 h
- AUC(0-inf) [2, 17]: 773 ng·h/mL
- Cmax [2, 17]: 201 ng/mL
- Tmax [2, 17]: 0.83 h
- half-life [2, 17]: 2.07 h
- CLz ([2]; IV, single administration): 21.8 mL/min/kg
- F ([2]; PO vs IV): 18.55%
- Vz ([2]; PO, single administration): 3.58 L/kg

SMILES: O=C1Cc2cc(CCN3C(=O)COC3c3cn(-c4ccc(Br)cc4)nc3-c3ccc(F)cc3)ccc2N1 (racemic) [example 13 racemate]
- EC50 [3]: 32.5 nM
- EC50 [4]: 86.8 nM
- EC50 [5]: 59.2 nM
- EC50 [6]: 30.9 nM
- EC50 [7]: 36 nM
- EC50 [8]: 47 nM
- EC50 [9]: 168 nM
- EC50 [1]: 22 nM
- EC50 [10]: 82 nM
- EC50 [11]: 74.7 nM
- EC50 [12]: 72.2 nM
- EC50 [13]: 102 nM
- EC50 [14]: 87.4 nM
- EC50 [15]: 75.8 nM
